From patent publication US7173021B2, “Synthesis of temozolomide esters as potent anticancer pro-drugs for topical and transdermal applications in treatments of cancers” (Tianjin North Pharm Sci-Tech Co., Ltd., priority 2004, dated 2007)
In brackets after ≈: the same amount, converted by molar mass.

Tests used:
B16 (mouse melanoma) = test: In vitro tumour cell growth inhibition (MTT), B16; assay type: cell-based; conditions: Mus musculus, Table 2 experiment, 96 h
Procedure: (§1) Temozolomide (white powder), temozolomide acid (white powder) and temozolomide-8-carboxylate hexyl (white scale crystal) were made in house. For the estimation of in vitro tumour cell growth inhibition, MV3 (human melanoma), M14 (human melanoma), B16 and B16-BL6 (mouse melanoma), SHG-44, TJ899 and TJ905 (human glioma), MCF-7 (human breast), HCT-8 (human colon), A549 (human non small lung), Bel7402 (human hepatocellulor), and BGC-823 (human stomach) were used. All tumour cells were cultured in RPMI-1640 medium supplemented with 10% fetal bovine serum (FBS) at 37° C. in a humidified 5% CO2 incubator.
(§2) After being harvested from culture flasks, a cell suspension of 1×10^4/ml was made by using 1640 RPMI medium supplemented with 10% fetal bovine serum. 100 μl (contains 1000 tumour cells) of the cell suspension was seeded per well of 96-well flat-bottom Costar culture plates at 37° C. in a humidified 5% CO2 incubator for 24 hrs before introducing drugs. Each tested compounds was made for five different concentrations and 100 μl of the each concentration was introduced into parallel three wells; control wells were added with 100 μl of plain medium alone; fluorouracil (a chemotherapeutic antitumour drug) was used as the positive control. Cells were then incubated for 96 h. Proliferative response and cell death were determined using MTT (3-(4,5-dimethylthiazolyl)-2,5-diphenyl-tetrazolium bromide) assay.
(§3) MTT assay: Following incubation of cells with the tested compounds for 96 h, 100 μl of 0.4 mg/ml MTT in RPMI 1640 was added to each well and the plate was incubated at 37° C. for 4 h. The plate was then centrifuged and followed by removal of medium. 150 μl of DMSO was then added to dissolve formazan crystal. DMSO-added plates were placed on a plate shaker for 5 min and absorbance was measured spectrophotometrically at 540 nm (with reference wavelength at 450 nm) using a Benchmark microtiter plate reader (Bio-Rad 550, Bio-Rad Laboratories, CA, U.S.A.).
(§4) The IC50 was calculated from the curve of the tested compound concentrations against the inhibition rate of the tumour cells. Table 1 summarized the experiment results by using six human cancer cell lines, HCT-8 (colon carcinoma), A549 (non small lung carcinoma), MCF-7 (breast), Bel7402 (hepatocellulor carcinoma), BGC-823 (stomach adenocarcinoma), and MV3 (melanoma). Table 2 summarized the results from the experiment results by using two human melanoma cell lines, MV3 and M14, two mouse melanoma cell lines, B16 and B16-BL6, and three human glioma cell lines, TJ899, SHG-44 and TJ905.

B16-BL6 (mouse melanoma) = test: In vitro tumour cell growth inhibition (MTT), B16-BL6; assay type: cell-based; conditions: Mus musculus, B16-BL6, Table 2 experiment, 96 h
Procedure: as §1, §2, §3, §4

[1] = In vitro permeation and metabolism, Franz diffusion cell, full-thickness rat skin; assay type: in vitro ADME; conditions: 37° C., 8 h, FIGS. 6-8
Text: Jacketed Franz-type diffusion cells were used throughout the study and the barrier (12) (skin or silicone membrane) was mounted between the two chambers (14, 16) (2.8–3.4 cm^2 available surface area) with the dermal side in contact with the receiver solution (FIG. 2). The diffusion chambers (10) comprised a barrier of skin or silicone membrane (12) mounted between two chambers (14, 16). A cap (18) formed the donor compartment (14). The second receptor compartment (16) contained a receptor cell (20) with a stirring bar (22), sampling port (24) and cover (26). The stirring bar (22) was stirred by means of a magnet plate (28) having a rotating magnet. The receptor compartment comprised a water jacket (30) having a water inlet (32) and a water outlet (34).
Three types of materials were used in permeation studies. • 1. […]
The membrane (as detailed above) was mounted on the diffusion cell (10), on which the surface area available for diffusion of each cell was about 2.8–3.4 cm^2. […] The concentration of each sample solution was determined by using HPLC. […]
As stated above, after the removal of receptor solution, the receiver compartment was refilled with an identical volume of receptor fluid. […] As a consequence, it was necessary to mathematically correct each successive sample concentrations, in the present invention, which was determined by applying the following equation: […]

For CCCCCCOC(=O)c1ncn2c(=O)n(C)nnc12 [temozolomide hexyl ester, Hexyl 3,4-dihydro-3-methyl-4-oxoimidazo[5,1-d]-1,2,3,5-tetrazine-8-carboxylate], the IC50 (B16 (mouse melanoma)) was 28.3 µg/mL (≈ 101 µM), the IC50 (B16-BL6 (mouse melanoma)) was > 100 µg/mL and the “Permeation through full-thickness rat skin (cumulative amount permeated %)” value [1] was “maximum value”.
